Data set [1] concerns the target T1, Toll-like receptor 8 (Homo sapiens) (UniProt Q9NR97).
T1 sequence (whole entry): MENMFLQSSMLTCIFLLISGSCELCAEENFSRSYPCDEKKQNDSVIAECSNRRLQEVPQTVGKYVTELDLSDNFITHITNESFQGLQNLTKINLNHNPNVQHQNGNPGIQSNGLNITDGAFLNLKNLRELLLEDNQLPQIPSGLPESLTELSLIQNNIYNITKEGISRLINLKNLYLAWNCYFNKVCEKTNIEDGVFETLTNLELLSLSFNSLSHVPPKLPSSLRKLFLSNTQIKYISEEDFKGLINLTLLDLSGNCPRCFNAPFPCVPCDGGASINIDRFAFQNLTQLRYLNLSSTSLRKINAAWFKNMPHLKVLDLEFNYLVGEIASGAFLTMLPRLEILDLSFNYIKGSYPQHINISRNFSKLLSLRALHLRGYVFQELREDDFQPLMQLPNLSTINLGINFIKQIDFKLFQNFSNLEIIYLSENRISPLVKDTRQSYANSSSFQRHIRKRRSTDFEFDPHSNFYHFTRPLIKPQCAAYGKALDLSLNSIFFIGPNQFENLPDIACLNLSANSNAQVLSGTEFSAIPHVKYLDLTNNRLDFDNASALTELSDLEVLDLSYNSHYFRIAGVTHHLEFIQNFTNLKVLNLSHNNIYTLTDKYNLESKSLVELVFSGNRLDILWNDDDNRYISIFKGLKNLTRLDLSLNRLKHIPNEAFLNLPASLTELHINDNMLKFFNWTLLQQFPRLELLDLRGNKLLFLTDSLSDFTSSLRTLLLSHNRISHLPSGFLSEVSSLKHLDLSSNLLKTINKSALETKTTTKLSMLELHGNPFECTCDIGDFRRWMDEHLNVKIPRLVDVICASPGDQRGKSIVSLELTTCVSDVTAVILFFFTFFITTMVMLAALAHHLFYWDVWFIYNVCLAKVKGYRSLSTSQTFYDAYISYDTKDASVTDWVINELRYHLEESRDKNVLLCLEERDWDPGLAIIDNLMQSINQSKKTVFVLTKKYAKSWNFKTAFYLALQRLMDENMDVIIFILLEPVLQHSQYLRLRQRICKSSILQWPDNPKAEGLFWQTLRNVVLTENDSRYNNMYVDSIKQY
As to the kind of experiment: Antagonist activity at human TLR8 expressed in HEK-Blue cells assessed as inhibition of CL075-induced NFkappaB activation by measuring reduction in SEAP level up to 50 uM after overnight incubation using qunati-blue reagent by SEAP reporter gene-based spectrophotometric method. The class given is cell-based.

Data set [2] has as its target T2, Toll-like receptor 7 (Homo sapiens) (UniProt Q9NYK1).
T2 sequence (whole entry): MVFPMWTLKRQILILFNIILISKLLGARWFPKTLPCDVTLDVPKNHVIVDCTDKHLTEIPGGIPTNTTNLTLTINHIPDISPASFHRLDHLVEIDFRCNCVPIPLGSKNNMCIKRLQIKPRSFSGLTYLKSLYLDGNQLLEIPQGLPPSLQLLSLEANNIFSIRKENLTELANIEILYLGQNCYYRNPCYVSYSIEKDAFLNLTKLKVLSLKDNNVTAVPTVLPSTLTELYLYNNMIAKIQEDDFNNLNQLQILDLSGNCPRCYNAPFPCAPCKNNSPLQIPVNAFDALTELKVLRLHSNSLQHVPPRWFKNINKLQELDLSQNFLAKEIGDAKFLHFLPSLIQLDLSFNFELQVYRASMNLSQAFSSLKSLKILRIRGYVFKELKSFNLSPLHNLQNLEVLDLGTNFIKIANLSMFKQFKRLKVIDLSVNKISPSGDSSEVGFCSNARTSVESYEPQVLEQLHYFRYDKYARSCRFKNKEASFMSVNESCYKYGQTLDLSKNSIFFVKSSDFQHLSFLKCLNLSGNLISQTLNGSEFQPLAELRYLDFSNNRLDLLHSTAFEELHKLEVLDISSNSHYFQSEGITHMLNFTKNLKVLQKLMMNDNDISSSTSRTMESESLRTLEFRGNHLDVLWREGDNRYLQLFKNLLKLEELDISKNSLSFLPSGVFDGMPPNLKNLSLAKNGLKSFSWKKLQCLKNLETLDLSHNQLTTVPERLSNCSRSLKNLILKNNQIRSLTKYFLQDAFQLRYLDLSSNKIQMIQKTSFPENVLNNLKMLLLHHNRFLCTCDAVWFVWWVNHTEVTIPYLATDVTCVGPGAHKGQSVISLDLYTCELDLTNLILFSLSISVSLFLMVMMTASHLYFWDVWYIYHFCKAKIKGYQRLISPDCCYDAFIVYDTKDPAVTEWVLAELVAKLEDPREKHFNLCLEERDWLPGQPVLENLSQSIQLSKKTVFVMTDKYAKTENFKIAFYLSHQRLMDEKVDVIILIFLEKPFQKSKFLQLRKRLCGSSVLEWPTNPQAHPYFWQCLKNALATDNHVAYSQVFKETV
In words: Antagonist activity at human TLR7 expressed in HEK-Blue cells assessed as inhibition of CL264-induced IL-6 mRNA expression at 5 uM preincubated for 1 hr followed by CL264 stimulation and measured after 6 hrs by SYBR green dye based RT-PCR analysis relative to control. The class given is cell-based.

Data set [3] in a line: Apparent permeability across basal to apical side in human Caco2 cells at 10 uM measured after 120 mins by LC-MS/MS analysis. Conditions: Caco-2. In general terms: Caco-2 monolayers are a common model of the intestinal barrier.
Data set [4] is described as follows: Efflux ratio of apparent permeability across basal to apical side over apical to basal side in human Caco2 cells at 10 uM measured after 120 mins by LC-MS/MS analysis. The settings on record: Caco-2.
Data set [5] can be described thus: AUC (0 to 24 hrs) in C57BL/6 mouse at 15 mg/kg, iv by LC-MS/MS analysis. The settings on record: in vivo. Details: time < 24 hr, dose 15 mg/kg, route intravenous. The class given is ADME, organism-based.
Data set [6] is described as follows: Volume of distribution at steady state in C57BL/6 mouse at 15 mg/kg, iv by LC-MS/MS analysis. The class given is ADME, organism-based. The settings on record: in vivo.
Data set [7] deals with Mus musculus. In words: Protection against imiquimod-induced C57BL/6 mouse model of psoriasis assessed as decrease in skin scaling at 15 mg/kg, po administered via gavage treated 1 day prior to imiquimod application and subsequent daily dosing for 7 consecutive days and measured post-last dose relative to control. The class given is functional. Details: scale not given: the % may be the effect or the level left.

Data set [8] concerns Mus musculus. In words: Protection against imiquimod-induced C57BL/6 mouse model of psoriasis assessed as suppression of vascular dilatation at 15 mg/kg, po administered via gavage treated 1 day prior to imiquimod application and subsequent daily dosing for 7 consecutive days and measured post-last dose by H and E staining based histopathological analysis. The class given is functional.

Data set [9] has as its system Mus musculus. In words: Protection against imiquimod-induced C57BL/6 mouse model of psoriasis assessed as reduction in MX1 mRNA expression at 15 mg/kg, po administered via gavage treated 1 day prior to imiquimod application and subsequent daily dosing for 7 consecutive days and measured post-last dose by SYBR green dye based qPCR analysis. In kind it is functional, organism-based.

Data set [10] in a line: Toxicity in C57BL/6 mouse assessed as liver inflammation at 15 mg/kg, po administered once daily via gavage for 7 consecutive days and measured post-last dose by H and E staining based histomorphological analysis. In kind it is organism-based. Conditions: in vivo.
Data set [11] in a line: Toxicity in C57BL/6 mouse assessed as glomerular hypertrophy at 15 mg/kg, po administered once daily via gavage for 7 consecutive days and measured post-last dose by H and E staining based histomorphological analysis. Conditions: in vivo. In kind it is organism-based.

Each structure is given as a SMILES string. The source made the active and inactive calls. No cut-off for these calls is given here.

For orientation: inhibition means the change of the read-out against control, counted positive when it falls. As usually defined, the Papp B→A is how fast a substance crosses the layer from the basolateral side. One may read the efflux ratio as a quotient of directional permeabilities that is used to spot active efflux. One may read the AUC(0-t) as the area under the concentration-time curve up to a stated or last time point. As usually defined, the Vdss is the apparent volume that relates the amount in the body to the concentration in plasma or blood. Regarding `CCN1CCN(CCCn2cnc3c(N4CCN(CC)CC4)ncnc32)CC1`, the inhibition entry in [1] is “inactive”. Further, the inhibition in data set [2] stood at 42.9%. In addition, the basolateral-to-apical permeability (Papp B→A) at 2 h, 10 µM in data set [3] worked out at 9.28 ×10⁻⁶ cm/s. Besides, the efflux ratio at 2 h, 10 µM in data set [4] came out at 2.6. Moreover, the AUC(0-t) at 24 h in data set [5] stood at 50900 ng·h/mL. In [6], this molecule had a Vdss of 4.2 L/kg. Besides, the Activity with Mus musculus [7] is on record as 100%; in the data set with Mus musculus [8], 100%; in data set [10], “Non-Toxic”; in data set [11] it was “Non-Toxic”. Also, the outcome in the data set with Mus musculus [9] was Active.

The record behind these values is ChEMBL document CHEMBL4402605, “A Chemical Switch for Transforming a Purine Agonist for Toll-like Receptor 7 to a Clinically Relevant Antagonist” (J Med Chem, 2020).
